Measurements: patent US11986471B2, “Compounds and methods of use” (Tango Therapeutics, Inc., priority 2018, dated 2024)

Tests used:
HAP1 MTAP-deleted = test: SDMA in-cell western assay, HAP1 MTAP-deleted cell line; type: cell-based; settings: for IC50: Homo sapiens, HAP1 MTAP-deleted cell line; for MTAP Intact/Deleted Ratio: IC50 ratio HAP1 MTAP-intact / HAP1 MTAP-deleted
Summary of the method: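 These are IC50 values from an in-cell western measuring SDMA. The HAP1 cells used carry no MTAP, in contrast to the isogenic partner line with endogenous MTAP expression.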

PRMT5 [1] = molecular target: T1, PRMT5 (Homo sapiens, UniProt O14744); test: PRMT5 IC50 assay in the presence of MTA as cofactor; type: biochemical; settings: for IC50: PRMT5, MTA as cofactor
T1 construct: purchased Viva (custom protein)
Summary of the method: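 For the SAM-containing format, dividing IC50 by 1.5 yields Ki; for the MTA-containing format the divisor is 13.5. A third format without cofactor gives IC50 alone.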

PRMT5 [2] = molecular target: T1, PRMT5; test: PRMT5 IC50 assay in the presence of SAM as cofactor; type: biochemical
Summary of the method: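 Each compound is tested on PRMT5 in the presence of SAM, of MTA, and without any cofactor. Ki values are then back-calculated using fixed factors of 1.5 (SAM) and 13.5 (MTA), and the two Ki values are compared as a ratio.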

PRMT5 [3] = molecular target: T1, PRMT5; test: PRMT5 IC50 assay with no cofactor; type: biochemical
Summary of the method: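 Potency against PRMT5 is compared across cofactor states, where IC50 equals Ki×1.5 with SAM present and Ki×13.5 with MTA present.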

HAP1 MTAP-intact = test: SDMA in-cell western assay, HAP1 MTAP-intact cell line; type: cell-based; settings: Homo sapiens
Summary of the method: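 Potency reflects cellular SDMA reduction, detected by in-cell western, in HAP1 cells with or without MTAP (endogenous expression versus null).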

[4] = ratio between Ki in the presence of SAM and Ki in the presence of MTA
[5] = ratio between the Ki in the presence of SAM and the Ki in the presence of MTA

T1 sequence (O14744 whole entry): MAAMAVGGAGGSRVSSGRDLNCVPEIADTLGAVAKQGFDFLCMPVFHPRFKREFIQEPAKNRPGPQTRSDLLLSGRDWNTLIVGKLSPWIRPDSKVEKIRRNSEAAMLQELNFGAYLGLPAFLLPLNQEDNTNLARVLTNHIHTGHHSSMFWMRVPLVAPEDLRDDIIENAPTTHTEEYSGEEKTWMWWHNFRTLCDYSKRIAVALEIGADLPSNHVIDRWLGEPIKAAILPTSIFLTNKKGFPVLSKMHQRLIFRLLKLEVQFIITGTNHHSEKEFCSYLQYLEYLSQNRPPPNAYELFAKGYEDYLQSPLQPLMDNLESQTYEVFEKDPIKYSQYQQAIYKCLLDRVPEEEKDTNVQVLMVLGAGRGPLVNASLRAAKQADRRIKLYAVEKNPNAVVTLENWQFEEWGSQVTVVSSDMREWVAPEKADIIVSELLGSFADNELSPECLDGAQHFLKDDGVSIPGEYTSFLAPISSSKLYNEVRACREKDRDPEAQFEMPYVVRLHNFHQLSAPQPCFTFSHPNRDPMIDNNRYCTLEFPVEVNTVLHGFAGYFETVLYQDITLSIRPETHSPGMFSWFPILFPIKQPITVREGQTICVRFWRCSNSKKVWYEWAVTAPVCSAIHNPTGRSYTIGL
T1 sequence (Q9BQA1 whole entry partner): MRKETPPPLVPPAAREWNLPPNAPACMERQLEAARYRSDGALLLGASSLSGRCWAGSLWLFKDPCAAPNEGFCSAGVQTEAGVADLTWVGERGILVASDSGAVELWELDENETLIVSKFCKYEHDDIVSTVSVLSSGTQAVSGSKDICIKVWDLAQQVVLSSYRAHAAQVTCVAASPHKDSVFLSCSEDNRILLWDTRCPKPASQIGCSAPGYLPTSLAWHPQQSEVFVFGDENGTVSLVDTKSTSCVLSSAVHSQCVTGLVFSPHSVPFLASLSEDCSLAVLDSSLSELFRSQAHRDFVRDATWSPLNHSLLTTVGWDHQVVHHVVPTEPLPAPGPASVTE

SMILES | IC50 (HAP1 MTAP-deleted) | MTAP Intact/Deleted Ratio (HAP1 MTAP-deleted) | IC50 (PRMT5 [1]) | SAM/MTA Ratio (PRMT5 [1]; [4]) | IC50 (PRMT5 [2]) | IC50 (PRMT5 [3]; read-out: No Co-factor IC50) | IC50 (HAP1 MTAP-intact) | SAM/MTA Ratio (PRMT5 [1]; [5]) | IC50 (PRMT5 [3])
O=C(NC[C@H](O)CN1CCc2c(ccc(OCc3cnco3)c2Cl)C1)c1ccnc(NC2CCC(F)C2)c1 (stereo partly drawn) [Compound 322] | ≥ 10000 nM | C* (an IC50 ratio of less than 3 fold between the IC50 in the HAP1 MTAP-intact cell line and the HAP1 MTAP-deleted cell line) | 50 to 500 nM | A (a Ki ratio greater than or equal to 10 fold between the Ki in the presence of SAM and the Ki in the presence of MTA) | 50 to 500 nM | ≥ 5000 nM | ≥ 10000 nM |  | 
CCN1CCN(c2nc(NC3COC3)cc(C(=O)NC[C@H](O)CN3CCc4cc(OCc5ocnc5C)ccc4C3)n2)CC1 [Compound 544, 2-(4-ethylpiperazin-1-yl)-N-[(2S)-2-hydroxy-3-(6-[(4-methyl-1,3-oxazol-5-yl)methoxy]-1,2,3,4-tetrahydroisoquinolin-2-yl}propyl]-6-[(oxetan-3-yl)amino]pyrimidine-4-carboxamide] | 1000 to 10000 nM | B* (an IC50 ratio greater than or equal to 3 fold but lower than 10 fold between the IC50 in the HAP1 MTAP-intact cell line and the HAP1 MTAP-deleted cell line) | 50 to 500 nM |  | 50 to 500 nM |  | 1000 to 10000 nM | A (a Ki ratio greater than or equal to 10 fold between the Ki in the presence of SAM and the Ki in the presence of MTA) | 500 to 5000 nM
CCCN(C)c1nc(NC2COC2)cc(C(=O)NC[C@H](O)CN2CCc3c(ccc(OCc4ocnc4C)c3C)C2)n1 [Compound 465, N-[(2K)-2-hydroxy-3-{5-methyl-6-[(4-methyl-1,3-oxazol-5-yl)methoxy]-1,2,3,4-tetrahydroisoquinolin-2-yl}propyl]-2-[methyl(propyl)amino]-6-[(oxetan-3-yl)amino]pyrimidine-4-carboxamide] | 1000 to 10000 nM | B* (an IC50 ratio greater than or equal to 3 fold but lower than 10 fold between the IC50 in the HAP1 MTAP-intact cell line and the HAP1 MTAP-deleted cell line) | 50 to 500 nM |  | 50 to 500 nM |  | ≥ 10000 nM | A (a Ki ratio greater than or equal to 10 fold between the Ki in the presence of SAM and the Ki in the presence of MTA) | ≥ 5000 nM
CC(=O)N1CCC(Nc2cc(C(=O)NC[C@H](O)CN3CCc4c(ccc(OCc5cn[nH]c5)c4Cl)C3)ncn2)CC1 [Compound 261, 6-[(1-acetyl-4-piperidyl)amino]-N-[(2S)-3-[5-chloro-6-(1H-pyrazol-4-ylmethoxy)-3,4-dihydro-1H-isoquinolin-2-yl]-2-hydroxy-propyl]pyrimidine-4-carboxamide] | 1000 to 10000 nM | C* (an IC50 ratio of less than 3 fold between the IC50 in the HAP1 MTAP-intact cell line and the HAP1 MTAP-deleted cell line) | 50 to 500 nM | A (a Ki ratio greater than or equal to 10 fold between the Ki in the presence of SAM and the Ki in the presence of MTA) | 50 to 500 nM | 500 to 5000 nM | < 1000 nM |  | 
Cc1ncoc1COc1ccc2c(c1C)CCN(C[C@@H](O)CNC(=O)c1cc(NC3CCCC3)ncn1)C2 [Compound 367, 6-(cyclopentylamino)-N-[(2S)-2-hydroxy-3-{5-methyl-6-[(4-methyl-1,3-oxazol-5-yl)methoxy]-1,2,3,4-tetrahydroisoquinolin-2-yl}propyl]pyrimidine-4-carboxamide] | ≥ 10000 nM | C* (an IC50 ratio of less than 3 fold between the IC50 in the HAP1 MTAP-intact cell line and the HAP1 MTAP-deleted cell line) | 50 to 500 nM | A (a Ki ratio greater than or equal to 10 fold between the Ki in the presence of SAM and the Ki in the presence of MTA) | 500 to 5000 nM | ≥ 5000 nM | ≥ 10000 nM |  | 
Cc1ncoc1COc1ccc2c(c1C)CCN(C[C@@H](O)CNC(=O)c1cc(NC3COC3)nc(N3CCCCC3)n1)C2 [Compound 391, N-[(2S)-2-hydroxy-3-{5-methyl-6-[(4-methyl-1,3-oxazol-5-yl)methoxy]-1,2,3,4-tetrahydroisoquinolin-2-yl}propyl]-6-[(oxetan-3-yl)amino]-2-(piperidin-1-yl)pyrimidine-4-carboxamide] | < 1000 nM | A* (an IC50 ratio greater than or equal to 10 fold between the IC50 in the HAP1 MTAP-intact cell line and the HAP1 MTAP-deleted cell line) | 50 to 500 nM | A (a Ki ratio greater than or equal to 10 fold between the Ki in the presence of SAM and the Ki in the presence of MTA) | 50 to 500 nM | ≥ 5000 nM | ≥ 10000 nM |  | 
O=C(NC[C@H](O)CN1CCc2c(ccc(OCc3cnco3)c2Cl)C1)c1cc(NC2CCC2)nc(N2CCOCC2)c1 [Compound 288, (S)—N-(3-(5-chloro-6-(oxazol-5-ylmethoxy)-3N-dihydroisoquinolin-2(1H)-yl)-2-hydroxypropyl)-2-(cyclobutylamino)-6-morpholinoisonicotinamide] | 1000 to 10000 nM | C* (an IC50 ratio of less than 3 fold between the IC50 in the HAP1 MTAP-intact cell line and the HAP1 MTAP-deleted cell line) | 50 to 500 nM | A (a Ki ratio greater than or equal to 10 fold between the Ki in the presence of SAM and the Ki in the presence of MTA) | 500 to 5000 nM | ≥ 5000 nM | ≥ 10000 nM |  | 
Cc1ncoc1COc1ccc2c(c1C)CCN(C[C@@H](O)CNC(=O)c1cc(NC3CCC3)ccn1)C2 [Compound 555, 4-(cyclobutylamino)-N-[(2S)-2-hydroxy-3-{5-methyl-6-[(4-methyl-1,3-oxazol-5-yl)methoxy]-1,2,3,4-tetrahydroisoquinolin-2-yl}propyl]pyridine-2-carboxamide] | 1000 to 10000 nM | C* (an IC50 ratio of less than 3 fold between the IC50 in the HAP1 MTAP-intact cell line and the HAP1 MTAP-deleted cell line) | 50 to 500 nM |  | 50 to 500 nM |  | ≥ 10000 nM | A (a Ki ratio greater than or equal to 10 fold between the Ki in the presence of SAM and the Ki in the presence of MTA) | ≥ 5000 nM
Cc1c(OCc2cnco2)ccc2c1CCN(C[C@@H](O)CNC(=O)c1cc(NC3CCN(C(=O)C4CCC4)CC3)ncn1)C2 [Compound 536, 6-[(1-cyclobutanecarbonylpiperidin-4-yl)amino]-N-[(2S)-2-hydroxy-3-{5-methyl-6-[(1,3-oxazol-5-yl)methoxy]-1,2,3,4-tetrahydroisoquinolin-2-yl}propyl]pyrimidine-4-carboxamide] | 1000 to 10000 nM | B* (an IC50 ratio greater than or equal to 3 fold but lower than 10 fold between the IC50 in the HAP1 MTAP-intact cell line and the HAP1 MTAP-deleted cell line) | 50 to 500 nM |  | 50 to 500 nM |  | ≥ 10000 nM | A (a Ki ratio greater than or equal to 10 fold between the Ki in the presence of SAM and the Ki in the presence of MTA) | 500 to 5000 nM
CC(=O)N1CC(Nc2cc(C(=O)NC[C@H](O)CN3CCc4c(ccc(OCc5cnco5)c4Cl)C3)nc(N3CCCCC3)n2)C1 [Compound 532] | < 1000 nM | A* (an IC50 ratio greater than or equal to 10 fold between the IC50 in the HAP1 MTAP-intact cell line and the HAP1 MTAP-deleted cell line) | 50 to 500 nM |  | 50 to 500 nM |  | ≥ 10000 nM | A (a Ki ratio greater than or equal to 10 fold between the Ki in the presence of SAM and the Ki in the presence of MTA) | 500 to 5000 nM
CC(C)CC(=O)N1CCC(Nc2cc(C(=O)NC[C@H](O)CN3CCc4cc(OCc5cnco5)ccc4C3)ccn2)CC1 [Compound 446, N-[(2S)-2-hydroxy-3-[6-(oxazol-5-ylmethoxy)-3,4-dihydro-1H-isoquinolin-2-yl]propyl]-2-[[1-(3-methylbutanoyl)-4-piperidyl]amino]pyridine-4-carboxamide] | < 1000 nM | C* (an IC50 ratio of less than 3 fold between the IC50 in the HAP1 MTAP-intact cell line and the HAP1 MTAP-deleted cell line) | < 50 nM |  | 50 to 500 nM |  | 1000 to 10000 nM | A (a Ki ratio greater than or equal to 10 fold between the Ki in the presence of SAM and the Ki in the presence of MTA) | 500 to 5000 nM
CCN1CCN(c2cc(C(=O)NC[C@H](O)CN3CCc4cc(OCc5cnco5)ccc4C3)cc(NC3CCC3)n2)CC1 [Compound 286] | 1000 to 10000 nM | B* (an IC50 ratio greater than or equal to 3 fold but lower than 10 fold between the IC50 in the HAP1 MTAP-intact cell line and the HAP1 MTAP-deleted cell line) | 50 to 500 nM | A (a Ki ratio greater than or equal to 10 fold between the Ki in the presence of SAM and the Ki in the presence of MTA) | 50 to 500 nM | 500 to 5000 nM | 1000 to 10000 nM |  | 
